Experimental data: publication PMC12040169 (PLOS Biology, 2025)

Assay: in vitro
Details: human, hela cells, % viability

| SMILES | viability at 28.5 h, 10 µM [%] |
| --- | --- |
| CCCc1cc(CNC(=O)CN2CCCC(C)C2)on1 (stereo not shown) [CBK282045] | 99.8 |
| O=C(O)CC(Cc1ccc(Cl)cc1)C(=O)Nc1ccc([N+](=O)[O-])cc1 (stereo not shown) [CBK261973] | 89.7 |
| O=C(N[C@H]1CO[C@H]2[C@@H]1OC[C@@H]2n1nnnc1Oc1ccc(-n2ccnc2)cc1)c1ccco1 [CBK289486] | 91.9 |
| O=C(CCCn1cccn1)N1CCOC(c2ccc(Cl)c(Cl)c2)C1 (stereo not shown) [CBK304640] | 98.5 |
| Fc1ccc(C2NC(S)=NC3=C2N2CCC3CC2)cc1 (stereo not shown) [CBK288390] | 95.4 |
| O=C(c1ccc([N+](=O)[O-])cc1Cl)N1CCN(Cc2ccccc2)CC1 [CBK261778] | 103 |
| CCCS(=O)(=O)Nc1cccc(-c2nnn[nH]2)c1 [CBK155417] | 104 |
| COc1ccc(Cl)cc1NC(=O)C(=O)NCC1CCCO1 (stereo not shown) [CBK263823] | 91.8 |
| COc1ccc(/N=C2\NC(=O)/C(=C\C=C\c3ccccc3)S2)cc1 [CBK263417] | 94.2 |
| CCc1c(C)sc(NC(=O)CSc2nnnn2C)c1C(=O)OC [CBK270312] | 90.7 |
| CN1CCN(c2ccccc2NC(=O)CSc2ccc(Cl)cc2)CC1 [CBK267941] | 98.9 |
| COc1ccc(CCNc2ncnc3[nH]cnc23)cc1OC [CBK134342] | 110 |
| CS(=O)(=O)Nc1ccc(C(=O)NCCN2CCOCC2)cc1 [CBK269781] | 93.2 |
| OCCCN1CCC(Oc2cncc(OCCN3CCOCC3)n2)C1 (stereo not shown) [CBK084494] | 95.9 |
| O=C(O)CCC(=O)NCc1ccc2c(c1)OCO2 [CBK286930] | 91.6 |
| Cc1cc(C)c(OCCCN2CCCCCC2)c(Cl)c1 [CBK266026G] | 101 |
| Cc1ccc2ncnc(NC(CC(C)C)C(=O)O)c2c1 (stereo not shown) [CBK275388] | 109 |
| CC(C)(C)c1nnc(NCc2ccccc2)s1 [CBK074922] | 95.7 |
| NC(=O)c1cccc(OCCOc2nccnc2N2CCNCC2)c1 [CBK014338G] | 114 |
| Cc1cc(C)c(C)c(S(=O)(=O)N2CCN(c3ncnc4sc(C)c(C)c34)CC2)c1C [CBK265297] | 90.2 |
| Cc1sc2nc(C(C)Nc3ccc4[nH]c(=O)[nH]c4c3)[nH]c(=O)c2c1C (stereo not shown) [CBK297915] | 80.6 |

| SMILES | viability at 28.5 h, 10 µM [%] |
| --- | --- |
| Cc1ncsc1CCOc1ccc(C(F)(F)F)cn1 [CBK115790] | 101 |
| Cc1ccc(NC(=O)Nc2ccc(F)cc2)cc1S(=O)(=O)N(C)C [CBK269482] | 92.8 |
| CCC1CCCCN1C(=O)c1cc(Br)c(Br)s1 (stereo not shown) [CBK089360] | 92.5 |
| O=C(c1ccsc1NS(=O)(=O)c1ccc2ccccc2c1)N1CCOCC1 [CBK042278] | 93.7 |
| CC1=C[C@@H](CNC(=O)NC(C)C)[C@H](C(C)C)C[C@H]1CC(=O)N1CCN(C)CC1 [CBK289047] | 100 |
| Cc1cc2cc(CNc3cc(-c4ccccc4)ccc3O)c(=O)[nH]c2cc1C [CBK286164] | 82.7 |
| CCn1cc(CN(CC(C)C)C(=O)c2ccccc2C#N)cn1 [CBK306729] | 102 |
| O=C(NCc1nc2ccccc2[nH]1)c1cc(Br)cnc1N1CCOCC1 [CBK076278] | 96.7 |
| COc1ccc(S(=O)(=O)Nc2c(C(=O)N3CCOCC3)sc3ncccc23)cc1OC [CBK050005] | 108 |
| CC(CN(C)C(=O)c1cocn1)Oc1ccc(Cl)c(Cl)c1 (stereo not shown) [CBK304285] | 97.6 |
| CCCOc1ncccc1O [CBK001459] | 89.7 |
| COc1c(C)cc(-c2[nH]c(C)nc2C)cc1C [CBK306941] | 86.6 |
| Cc1cc(=O)nc(N/C(N)=N/c2cccc([N+](=O)[O-])c2)[nH]1 [CBK264857] | 102 |
| CCN(C(=O)c1cc(C)nc2ccccc12)C1CCN(C)CC1 [CBK281920] | 106 |
| CC(C)(C)OC(=O)N1CCN(Cc2nc(-c3ccccc3)no2)CC1 [CBK306465] | 99.8 |
| Nc1nonc1-c1noc(-c2cccc(Cl)c2)n1 [CBK026691] | 90.2 |
| Cc1ccc2nc(NC3=NC(CC(=O)O)C(=O)N3)nc(C)c2c1 (stereo not shown) [CBK218806] | 90.3 |
| Cc1c(C(=O)Nc2ccc(OCc3ccccc3F)cc2)sc2nc[nH]c(=O)c12 [CBK285834] | 98.5 |
| Cc1nnc(N2C(=O)c3oc4ccc(Cl)cc4c(=O)c3C2c2cccc(OCc3ccccc3)c2)s1 (stereo not shown) [CBK266870] | 95 |
| Nc1n[nH]c(SCC(=O)Nc2ccc(Br)cc2Cl)n1 [CBK267875] | 95.3 |
| Clc1ccc(Cl)c(N/N=C(\c2ccccc2)c2cccnc2)c1 [CBK015932C] | 96.9 |

| SMILES | viability at 28.5 h, 10 µM [%] |
| --- | --- |
| O=C1CN(C(=O)NC2CCc3ccccc32)CCN1 (stereo not shown) [CBK155878] | 97.5 |
| Cc1nc(C)c(CCC(=O)NC2CCSc3c(F)cccc32)c(=O)[nH]1 (stereo not shown) [CBK295601] | 95.2 |
| CC(=O)Nc1ccc(S(=O)(=O)Nc2ccc(-c3cn4cccnc4n3)cc2)cc1 [CBK268671] | 105 |
| O=C/C(=C\Nc1ccc(S(=O)(=O)N2CCCCC2)cc1)c1nc2ccccc2o1 [CBK262281] | 99.2 |
| CCCS(=O)(=O)N1CCN(Cc2cc(Br)ccc2O)CC1 [CBK264165G] | 102 |
| OCCN1CCN(C(c2ccccc2)c2sc3ncnn3c2O)CC1 (stereo not shown) [CBK287611] | 82.5 |
| Cc1oc(NC(=O)CN(C)Cc2cccc(F)c2)c(C#N)c1C [CBK305609] | 90.9 |
| CC(C)N1C(=O)C2(CC(=O)N(CCCN3C(=O)c4ccccc4C3=O)C2=O)c2cc(F)ccc21 (stereo not shown) [CBK075969] | 99 |
| CC(=O)NC[C@H]1CN(c2ccc3c(c2)CCN(C(=O)Oc2ccccc2)CC3)C(=O)O1 [CBK018498] | 91.2 |
| Brc1ccc(-n2cnnn2)cc1 [CBK027696] | 110 |
| CCOC(=O)C1CCCN(C(=O)Cn2cnc(-c3cccs3)cc2=O)C1 (stereo not shown) [CBK304210] | 89.3 |
| O=C(NCc1ccccc1Cl)C1CCCN(S(=O)(=O)c2ccccc2)C1 (stereo not shown) [CBK269086] | 92.8 |
| CC(=O)Nc1ccc(CNC(=O)CN2CCCC(c3ncc[nH]3)C2)cc1 (stereo not shown) [CBK307718] | 96.5 |
| O=C(Nc1cc(Cl)cc(Cl)c1)c1ccc([N+](=O)[O-])s1 [CBK066840] | 95.2 |
| COc1ccccc1-c1ccc(CC2(C(=O)NCc3ccc(F)cc3)CCOCC2)cc1 [CBK286518] | 100 |
| COc1ccccc1Nc1nc(N2CCOCC2)nc(N2CCOCC2)n1 [CBK287731] | 111 |
| O=C(O)C1CC=CCC1C(=O)NCc1ccc2c(c1)OCO2 (stereo not shown) [CBK264209] | 96.4 |
| COc1ccc(C(=O)Nc2ccccc2C(=O)Nc2cccc([N+](=O)[O-])c2)cc1 [CBK265894] | 101 |
| COc1cccc2c3c([nH]c12)C1(CCN(CCCC#N)CC1)N(C(C)=O)CC3 [CBK039722] | 99.6 |
| Cn1nc(C2CCN(C(=O)c3ccccc3F)CC2)c2cccnc21 [CBK285019] | 106 |
| O=C(C1CC2C=CC1C21CC1)N1CCN(Cc2ccccn2)CC1 (stereo not shown) [CBK281443] | 86.3 |

Same assay, conditions: human, hela cells, % viability, bulk resorufin, single well

| SMILES | viability at 28.5 h, 10 µM [%] |
| --- | --- |
| NC(=O)Cn1cc(C(=O)COc2ccccc2)c2ccccc21 [CBK267650] | 95.2 |
